# Assay results reported in patent US12391698B2, “Substituted piperidines and piperazines and methods for the treatment of CNS disorders” (SUVEN LIFE SCIENCES LIMITED, priority 2022, dated 2025).
# Structures can show the parent of a compound that is named as a salt.
# Molecular target: T1, recombinant human 5-HT1A receptor (Homo sapiens, UniProt P08908)
# T1 construct: expressed in transfected cells
# T1 sequence (P08908 1-422): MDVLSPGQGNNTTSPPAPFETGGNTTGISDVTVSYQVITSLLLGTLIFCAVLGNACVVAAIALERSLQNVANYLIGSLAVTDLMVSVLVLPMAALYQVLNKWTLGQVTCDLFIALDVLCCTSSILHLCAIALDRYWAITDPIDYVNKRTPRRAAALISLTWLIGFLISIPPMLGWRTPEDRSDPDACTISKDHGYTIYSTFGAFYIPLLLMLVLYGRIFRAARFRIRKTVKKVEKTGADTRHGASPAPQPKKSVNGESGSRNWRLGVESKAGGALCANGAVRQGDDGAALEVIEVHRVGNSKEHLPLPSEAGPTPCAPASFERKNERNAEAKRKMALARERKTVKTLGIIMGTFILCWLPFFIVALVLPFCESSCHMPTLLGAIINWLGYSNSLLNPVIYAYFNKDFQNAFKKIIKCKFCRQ
# Assay: Determination of Kb at 5-HT1A receptor, pCRE-Luc reporter gene assay in CHO cells
# Type: cell-based
# Protocol: A stable CHO cell line expressing recombinant human 5-HT1A receptor and pCRE-Luc reporter system was used for cell-based assay. The assay offers a non-radioactive based approach to determine binding of a compound to GPCRs. In this specific assay, the level of intracellular cAMP which is modulated by activation or inhibition of the receptor is measured. The recombinant cells harbor luciferase reporter gene under the control of cAMP response element.
# The above cells were grown in 96 well clear bottom white plates in Hams F12 medium containing 10% fetal bovine serum (FBS). Prior to the addition of compounds or standard agonist, cells were serum starved overnight. Increasing concentrations of test compound were added along with 1 μM of U92016A and 1 μM of forskolin in Opti-MEM medium to the cells. The incubation was continued at 37° C. in CO2 incubator for 4 hours. Medium was removed and cells were washed with phosphate buffered saline. The cells were lysed and luciferase activity was measured in a Luminometer. Luminescence units were plotted against the compound concentrations using GraphPad Prism software. EC50 values of the compounds were defined as the concentration required in reducing the luciferase activity by 50%. The Kb values were calculated by feeding the concentration of agonist used in the assay and its EC50 value in the same software.
structure (smiles),measurement,setting,value
"O=C1C[C@@H]2CCCN2C(=O)N1CCCCN1CCN(c2nsc3ccccc23)CC1 [Example 2, 2-[4-(4-Benzo[d]isothiazol-3-yl-piperazin-1-yl)-butyl]-tetrahydro-pyrrolo[1,2-c]pyrimidine-1,3-dione oxalate]",agonist activity at human recombinant 5-HT1A receptor,pCRE-Luc reporter gene assay,no detectable agonist activity
same,antagonistic activity at human recombinant 5-HT1A receptor,pCRE-Luc reporter gene assay,antagonistic activity
same,Kb,"with 1 μM U92016A and 1 μM forskolin, luciferase readout",2.3 nM
